Test results reported in the METLIN SMRT retention time set (Domingo-Almenara et al. 2019).

Assay: gradient 5% acetonitrile 3 min, to 50% in 2 min, to 85% in 15 min, held 3 min, 100 µL/min
Settings: column: Zorbax Extend-C18 2.1 x 50 mm; eluents: water / acetonitrile, 0.1% formic acid
Summary of the method: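 Retention times come from adduct peaks that were picked computationally and then checked by hand. The standards, pure and pooled in mixtures of ~100 molecules, were run on a Zorbax Extend-C18 column (2.1 × 50 mm, 1.8 μm) at 100 μL/min with water and acetonitrile, each with 0.1% formic acid. Detection was by quadrupole time-of-flight mass spectrometry in positive and negative ionization mode, with a dead volume of 40 μL and a dwell volume of 900 μL.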

| Compound | RP-LC retention time [s] |
| --- | --- |
| Cc1cc(C)nc(Sc2ccc(S(C)(=O)=O)cc2[N+](=O)[O-])n1 | 750 |
| O=C(CCc1conc1-c1ccc(F)cc1)NCc1ccc(F)cc1 | 886 |
| CCc1nn2c(CNC(=O)c3ccccc3)c(-c3ccccc3)nc2s1 | 870 |
| CCOc1ccc(NC(=O)Cn2c(C)nc3c(sc4nc(-c5ccccc5)ccc43)c2=O)cc1 | 1070 |
| O=c1n(Cc2cccc(C(F)(F)F)c2)nc2c(S(=O)(=O)N3CCc4ccccc4C3)cccn12 | 1010 |
| CCOc1ccc(OCC)c(N2C=C(C#N)S(=O)(=O)c3ccccc32)c1 | 1000 |
| O=C1CC[C@@]2(O)C3Cc4ccc(O)c5c4C2(CCN3CC2CC2)[C@H]1O5 (some centres undefined) | 599 |
| COc1cc(OC)c(NC(=O)Cn2cc3c(n2)CCCC3)cc1Cl | 906 |
| CCc1ccc(OCC(=O)Nc2nnc(SCc3nnc(-c4ccccc4)o3)s2)cc1 | 1010 |
| CCOC(=O)CCCn1c(=O)c2cccn2c2ccc(F)cc21 | 847 |
| CCOc1ccccc1NS(=O)(=O)c1ccccc1-c1nc(-c2ccc(F)cc2)no1 | 1150 |
| COc1ccc(CCc2nc(Cn3c(C)nc4ccccc4c3=O)no2)cc1 | 858 |
| CCn1cc(S(=O)(=O)Nc2ccc(C)cc2C)c2cccnc21 | 900 |
| COc1ncc(C(=O)NCc2cccc(Br)c2)cn1 | 779 |
| Cc1sc(-c2noc(C(C)C)n2)cc1S(=O)(=O)N1CCC(C(=O)N(C)Cc2ccco2)CC1 | 1070 |
| Cc1ccc(NS(=O)(=O)c2cc3n(c2)CCN(CC(C)C)C3=O)cc1C | 846 |
| CCC1=NS(=O)(=O)c2cccnc2N1c1ccc(Br)c(C)c1 | 986 |
| COC(=O)c1c(C)[nH]c(C(=O)N2CCC(CC(=O)NCc3ccc4c(c3)OCO4)CC2)c1C | 770 |
| CSc1ncccc1C(=O)N1CCCC1c1nc(-c2ccc(F)cc2F)no1 (centres undefined) | 907 |
| CCOc1ccc(-n2cc(-c3nc(-c4ccccn4)no3)c3ccccc3c2=O)cc1 | 599 |
| CC(C)CC(=O)Nc1nc(-c2ccc3c(c2)N(C)C(=O)CO3)cs1 | 830 |
| CCn1cc(C(=O)Nc2ccccc2F)c2cccnc21 | 812 |
| CCOC(=O)c1ccc(NC(=O)Cn2c(=O)n(-c3ccccc3)c(=O)c3c2cc(C)n3C)cc1 | 854 |
| COc1cc(NC(=O)Cc2csc3nc(-c4cccc(Br)c4)cn23)cc(OC)c1 | 974 |
| COc1cc2c(cc1CNC(=O)Cn1cc(C(=O)c3ccco3)c3ccccc31)OCCCO2 | 902 |
| CCOc1ccc(N2CC(NC(=O)C(=O)c3c[nH]c4ccccc34)CC2=O)cc1 (centres undefined) | 791 |
| COc1cccc2c(C)nc(NC3=NCN(Cc4ccc5c(c4)OCO5)CN3)nc12 | 700 |
| CCOCCCNC(=O)N1CCC(c2cc(N)on2)CC1 | 601 |

| Compound | RP-LC retention time [s] |
| --- | --- |
| CCc1ccc(NC(=O)Cn2c(=O)n(-c3ccccc3)c(=O)c3c2cc(C)n3C)cc1 | 886 |
| Cc1cncn(CC(=O)Nc2ccccc2Cl)c1=O | 608 |
| CC(C)Cn1cc(CCNC(=O)c2ccc(F)c(Cl)c2)c2cccnc21 | 909 |
| Cc1nc2sccn2c(=O)c1NC(=O)Nc1ccc(C(C)C)cc1 | 704 |
| CCOC(=O)c1cnc2c(-c3cccc(Cl)c3)c(C)nn2c1N | 1180 |
| O=C1[C@@H]2Cc3c([nH]c4ccccc34)C(CCc3ccccc3)N2C(=O)CN1Cc1ccco1 (some centres undefined) | 1000 |
| O=C(C1CCC1)N1[C@H]2CC[C@@H]1c1cnc(-c3ccccc3)nc1C2 | 876 |
| COc1cc(C(=O)NCC(c2ccc3c(c2)OCO3)N2CCOCC2)cc(OC)c1OC (centres undefined) | 617 |
| CCn1ccc(C(=O)NC(C(=O)N2CCCc3ccccc32)c2ccccc2)n1 (centres undefined) | 967 |
| CN1c2ccccc2C(=O)NC12CCN(C(=O)NCCc1ccccc1)CC2 | 728 |
| Cc1ccc(-c2ncc(C(=O)N3CC=C(c4ccccc4)CC3)c(-c3ccncc3)n2)cc1 | 1110 |
| CCc1ccc(S(=O)(=O)c2cnc(N3CCN(c4ccccc4OC)CC3)nc2N)cc1 | 1080 |
| CN(C)c1ccc2c(c1)CN(C(=O)c1ccoc1)CCO2 | 573 |
| COc1cccc(C2Cn3nnc(-c4nc(-c5cccc(Cl)c5)no4)c3CO2)c1 (centres undefined) | 1250 |
| CC(C)(C)NCCC(O)c1cc(C(F)(F)F)nc2c(C(F)(F)F)cccc12 (centres undefined) | 718 |
| CCC(C(=O)NCc1ccco1)n1nc(C)c2c(C)n(-c3ccccc3)nc2c1=O (centres undefined) | 831 |
| COc1ccc(C2Cn3nnc(-c4nc(C)no4)c3CO2)cc1 (centres undefined) | 833 |
| Fc1ccc(-c2nnc(Cc3nc(-c4ccc(C(F)(F)F)cc4)no3)o2)cc1 | 1100 |
| CCn1cc(-c2nc(CC(=O)NCc3ccco3)cs2)c2cccnc21 | 793 |
| CCOC(=O)c1c(N2C(=O)C3C4C=CC(O4)C3C2=O)sc2c1CCCC2 (centres undefined) | 872 |
| CC(C)(C)c1ccc(-c2nc(C3CC(=O)N(c4ccc(Cl)cc4)C3)no2)cc1 (centres undefined) | 861 |
| O=C(Nc1ccccc1C(F)(F)F)N1CCCC(Cn2cnc3cccnc32)C1 (centres undefined) | 680 |
| CNC(=O)Nc1ccc(S(N)(=O)=O)cc1 | 604 |
| O=C(NC1CCCC1)c1ccn[nH]1 | 614 |
| CCn1cc(C(=O)Nc2ccc(F)c(Cl)c2)c2cccnc21 | 965 |
| O=c1c(NCc2ccc(Cl)cc2)nccn1-c1ccc2c(c1)OCO2 | 923 |
| CCOC(=O)c1csc(NC(=O)CCS(=O)(=O)c2ccc(OC)cc2)n1 | 700 |

Results, then the compound that gave them:

| RP-LC retention time [s] | Compound |
| --- | --- |
| 925 | COCCn1cc(C(=O)NC2CCCCC2)c2nn(-c3ccccc3)c(=O)c-2c1 |
| 888 | Cc1cccc(C(=O)Nc2ccc(N3CCN(C4CCCC4)C3=O)nc2)c1 |
| 934 | CCCn1c(=O)sc2cc(S(=O)(=O)N3CCC(C(=O)NCc4ccc(F)cc4)CC3)ccc21 |
| 640 | Cc1ccc(NC(=O)Cn2nc3n(c2=O)CCCC3)cc1 |
| 599 | Cc1cc(C(=O)N2CCCn3ccnc3C2C2CCCC2)on1 (centres undefined) |
| 594 | CN1CCc2nnc(C3CCCN3C(=O)Nc3ccc(Cl)cc3C(F)(F)F)n2CC1 (centres undefined) |
| 780 | CCOC(=O)c1c(C)[nH]c(C(=O)N2CCC(CC(=O)NCc3ccc(F)cc3)CC2)c1C |
| 862 | COCCNC(=O)C1CCN(S(=O)(=O)c2ccc3c(c2)NC(=O)CO3)CC1 |
| 628 | CC(NC(=O)C1CCCN(C(=O)c2cc3sccc3n2C)C1)c1ccccc1 (centres undefined) |
| 836 | O=C(Cn1cccc1-c1nnc(C2CCC2)o1)NCc1ccc2c(c1)OCO2 |
| 907 | COc1ccc(-c2nnc(COc3ccc(NC(=O)c4n[nH]c5c4CCCC5)cc3)o2)cc1 |
| 1060 | Cc1ccc(-c2noc(C3CC(=O)N(c4ccc(Cl)cc4)C3)n2)cc1 (centres undefined) |
| 1000 | Cc1nn(-c2ccccc2)c(C)c1S(=O)(=O)N1CCC(C(=O)Nc2ccc(F)cc2Cl)CC1 |
| 663 | CCC1CN(C(=O)N2CCC(C(=O)NCCCN3CCCCCC3)CC2)c2ccccc2O1 (centres undefined) |
| 809 | CCOc1ccc2nc(NC(=O)C3CCN(S(=O)(=O)c4cn(CC)cn4)CC3)sc2c1 |
| 772 | CCn1ncc(NC(=O)c2ccc(F)cc2)c(N2CCOCC2)c1=O |
| 812 | CC1CN(C(=O)CSc2cn(CC(=O)N3CCCCC3)c3ccccc23)CC(C)O1 (centres undefined) |

| RP-LC retention time [s] | Compound |
| --- | --- |
| 906 | CC(C)CCn1nc2c(S(=O)(=O)N3CCCCC3)cccn2c1=O |
| 990 | O=C(NCc1ccc2c(c1)CCCN2C(=O)C1CCC1)c1ccc(C(F)(F)F)cc1 |
| 770 | CCc1nnc(C2CCN(C(=O)c3ccc(F)cc3F)CC2)s1 |
| 660 | CC1CCCN(C(=O)c2csc(-c3ccc(N4CCCC4)nc3)n2)C1 (centres undefined) |
| 799 | Cc1ccccc1CNC(=O)Cn1nc(C(=O)N2CCCC2)c2ccccc21 |
| 836 | Cc1cc(C)cc(C(=O)N2CCCC(C(=O)NC3CCCC3)C2)c1 (centres undefined) |
| 938 | Cn1c(=O)c(N2CCN(C(=O)Cc3ccc(Br)cc3)CC2)nc2cccnc21 |
| 646 | COCCCNC(=O)c1ccc(-c2ccc(N3CCSCC3)nc2)cc1 |
| 929 | CCOc1ccc(C(=O)Nc2cnn(-c3ncncc3N3CCC(C)CC3)c2)cc1 |
| 619 | CC(=O)N1c2ccc(S(=O)(=O)N3CCCC3)cc2CC1C(=O)NCCCN1CCCCCC1 (centres undefined) |
| 946 | Cc1cc(-c2nnc(-c3ccc(F)cc3)o2)c(C)n1CC(=O)NC(C)c1ccccc1 (centres undefined) |
| 694 | CN(Cc1nc(-c2ccc(N3CCSCC3)nc2)no1)C1CCCCC1 |
| 654 | Cc1ccc(-c2cc3c(=O)n(Cc4noc(CN5CCCC5)n4)ccn3n2)cc1 |
| 752 | COc1cccc(CNC(=O)c2cn(-c3cc(N4CCOCC4)ncn3)cn2)c1 |
| 934 | COc1ccc(Cl)cc1NC(=O)C1CCCN(c2ncnc3c2nc2n3CCCCC2)C1 (centres undefined) |
| 686 | CCCCOc1ccc(-c2cc3c4nnc(CCC(=O)N5CCN(C)CC5)n4ccn3n2)cc1 |
| 624 | Cc1ccc(-c2nnc(N3CCC(C(=O)NCCN4CCCCC4C)CC3)o2)cc1 (centres undefined) |
